Assay results: patent US10131652B2, “Pyrimidinyloxy benzene derivatives as herbicides” (E. I. DU PONT DE NEMOURS AND COMPANY, priority 2014, dated 2018)

Assays:
Type in all cases: in vivo
[1] = tested on: winter wheat (Triticum aestivum); assay: Test D pre-/postemergence plant response; details: Postemergence; for Wheat plant response rating: scale 0 to 100 (0 no effect, 100 complete control); for Plant response rating, Wheat: scale 0 to 100, 0 no effect, 100 complete control
Outline: (§1)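 Each compound, in non-phytotoxic solvent with surfactant, was sprayed onto soil right after sowing or onto young plants 2 to 18 cm tall. After 13 to 15 days under greenhouse conditions, effects were judged visually against controls on a 0 (no effect) to 100 (complete control) scale.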

corn (Zea mays) = assay: Test D pre-/postemergence plant response; details: Postemergence; for Corn plant response rating: scale 0 to 100 (0 no effect, 100 complete control); for Plant response rating, Corn: scale 0 to 100, 0 no effect, 100 complete control
Outline: as §1

[2] = tested on: velvetleaf (Abutilon theophrasti); assay: Test D pre-/postemergence plant response; details: Postemergence; for Velvetleaf plant response rating: scale 0 to 100 (0 no effect, 100 complete control); for Plant response rating, Velvetleaf: scale 0 to 100, 0 no effect, 100 complete control
Outline: as §1

[3] = tested on: oilseed rape (Brassica napus); assay: Test D pre-/postemergence plant response; details: Postemergence; for Oilseed Rape plant response rating: scale 0 to 100 (0 no effect, 100 complete control); for Plant response rating, Oilseed Rape: scale 0 to 100, 0 no effect, 100 complete control
Outline: as §1

[4] = tested on: galium (catchweed bedstraw, Galium aparine); assay: Test D pre-/postemergence plant response; details: Postemergence; for Galium plant response rating: scale 0 to 100 (0 no effect, 100 complete control); for Plant response rating, Galium: scale 0 to 100, 0 no effect, 100 complete control
Outline: as §1

[5] = tested on: lambsquarters (Chenopodium album); assay: Test D pre-/postemergence plant response; details: Postemergence; for Lambsquarters plant response rating: scale 0 to 100 (0 no effect, 100 complete control); for Plant response rating, Lambsquarters: scale 0 to 100, 0 no effect, 100 complete control
Outline: as §1

[6] = tested on: Italian ryegrass (Lolium multiflorum); assay: Test D pre-/postemergence plant response; details: Postemergence; for Ryegrass, Italian plant response rating: scale 0 to 100 (0 no effect, 100 complete control); for Plant response rating, Ryegrass, Italian: scale 0 to 100, 0 no effect, 100 complete control
Outline: as §1

[7] = tested on: barnyardgrass (Echinochloa crus-galli); assay: Test C flooded paddy test plant response; details: Flood, 250 g ai/ha; scale of 0 to 100 where 0 is no effect and 100 is complete control; 13 to 15 days
Outline: (§2)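 2-leaf plants; flood 3 cm, cpd into paddy water; greenhouse 13–15 d; visual score vs untreated, 0 = no effect, 100 = complete control; dash = no result.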

[8] = tested on: ducksalad (Heteranthera limosa); assay: Test C flooded paddy test plant response; details: Flood, 250 g ai/ha; scale of 0 to 100 where 0 is no effect and 100 is complete control; 13 to 15 days
Outline: as §2

rice (Oryza sativa) = assay: Test C flooded paddy test plant response; details: Flood, 250 g ai/ha; scale of 0 to 100 where 0 is no effect and 100 is complete control; 13 to 15 days
Outline: as §2

[9] = tested on: small-flower umbrella sedge (Cyperus difformis); assay: Test C flooded paddy test plant response; details: Flood, 250 g ai/ha; scale of 0 to 100 where 0 is no effect and 100 is complete control; 13 to 15 days
Outline: as §2

kochia (Kochia scoparia) = assay: Test B pre-/postemergence plant response
Outline: (§3)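 Evaluation is visual, about 10 days after application, rating injury from 0 (none) to 100 (complete control) relative to untreated controls. Application was a preemergence soil spray on seeded pots or a postemergence spray on one- to two-leaf plants.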

[10] = tested on: ragweed (common ragweed, Ambrosia elatior); assay: Test B pre-/postemergence plant response
Outline: as §3

[11] = tested on: Italian ryegrass (Lolium multiflorum); assay: Test B pre-/postemergence plant response
Outline: as §3

[12] = 125 g ai/ha, postemergence, 0 to 100 scale, 0 no effect, 100 complete control
[13] = Postemergence, 500 g ai/ha, 0 to 100 scale (0 no effect, 100 complete control)
[14] = Preemergence, 125 g ai/ha, 0 to 100 scale where 0 is no effect and 100 is complete control
[15] = Preemergence, 500 g ai/ha, 0 to 100 scale where 0 is no effect and 100 is complete control

Compound: Cn1nnc(-c2ccccc2Oc2ncc(Br)cn2)n1 [Compound 50]
- Wheat plant response rating ([1]; 16 g ai/ha): 0
- Wheat plant response rating ([1]; 31 g ai/ha): 0
- Plant response rating, Wheat ([1]; 62 g ai/ha): 5
- Plant response rating, Wheat ([1]; 125 g ai/ha): 5
- Corn plant response rating (corn (Zea mays); 16 g ai/ha): 0
- Corn plant response rating (corn (Zea mays); 31 g ai/ha): 0
- Plant response rating, Corn (corn (Zea mays); 62 g ai/ha): 0
- Plant response rating, Corn (corn (Zea mays); 125 g ai/ha): 5
- Velvetleaf plant response rating ([2]; 16 g ai/ha): 0
- Velvetleaf plant response rating ([2]; 31 g ai/ha): 0
- Plant response rating, Velvetleaf ([2]; 62 g ai/ha): 0
- Plant response rating, Velvetleaf ([2]; 125 g ai/ha): 40
- Oilseed Rape plant response rating ([3]; 16 g ai/ha): 5
- Oilseed Rape plant response rating ([3]; 31 g ai/ha): 5
- Plant response rating, Oilseed Rape ([3]; 62 g ai/ha): 10
- Plant response rating, Oilseed Rape ([3]; 125 g ai/ha): 30
- Galium plant response rating ([4]; 16 g ai/ha): 30
- Galium plant response rating ([4]; 31 g ai/ha): 15
- Plant response rating, Galium ([4]; 62 g ai/ha): 5
- Plant response rating, Galium ([4]; 125 g ai/ha): 60
- Lambsquarters plant response rating ([5]; 16 g ai/ha): 0
- Lambsquarters plant response rating ([5]; 31 g ai/ha): 5
- Plant response rating, Lambsquarters ([5]; 62 g ai/ha): 50
- Plant response rating, Lambsquarters ([5]; 125 g ai/ha): 5
- Ryegrass, Italian plant response rating ([6]; 16 g ai/ha): 0
- Ryegrass, Italian plant response rating ([6]; 31 g ai/ha): 0
- Plant response rating, Ryegrass, Italian ([6]; 62 g ai/ha): 0
- Plant response rating, Ryegrass, Italian ([6]; 125 g ai/ha): 0
- Barnyardgrass plant response rating [7]: 0
- Ducksalad plant response rating [8]: 30
- Rice plant response rating (rice (Oryza sativa)): 0
- Sedge, Umbrella plant response rating [9]: 0
- Plant response rating, Kochia (kochia (Kochia scoparia); [12]): 60
- Plant response rating, Kochia (kochia (Kochia scoparia); [13]): 80
- Plant response rating, Kochia (kochia (Kochia scoparia); [14]): 10
- Plant response rating, Kochia (kochia (Kochia scoparia); [15]): 60
- Plant response rating, Ragweed [10, 12]: 20
- Plant response rating, Ragweed [10, 13]: 60
- Plant response rating, Ragweed [10, 14]: 0
- Plant response rating, Ragweed [10, 15]: 50
- Plant response rating, Ryegrass, Italian [11, 12]: 0
- Plant response rating, Ryegrass, Italian [11, 13]: 50
- Plant response rating, Ryegrass, Italian [11, 14]: 20
- Plant response rating, Ryegrass, Italian [11, 15]: 50
